# Source: paper PMC9090415, “Discovery of small molecule inhibitors of Plasmodium falciparum apicoplast DNA polymerase” (Journal of Enzyme Inhibition and Medicinal Chemistry, 2022)
# Target: P. falciparum apicoplast DNA polymerase (Pf-apPOL) (Plasmodium falciparum, UniProt Q8ILY1)
# Assay: Fluorescence-based high-throughput DNA polymerase assay (molecular beacon), primary screen and dose-response;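 for % inhibition ApPOL 90': test concentration in µM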;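 for % inhibition apPOL 180': test concentration in µM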
# Type: biochemical
# Settings: for DNA Pol: 90 min, 10 µM; for IC50: supplemental file 2, sheet IC50 nontoxic compounds, Pf-apPOL
# How it was run: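 Single-point screening used 10 µM compound with 20 nM polymerase, 20 nM hairpin substrate and 6 µM dNTPs for 90 min at 25 °C. Confirmatory titrations (2.5–80 µM) followed fluorescence at three times, and IC50 was derived from a fit including a cooperativity term n.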
# P. falciparum apicoplast DNA polymerase (Pf-apPOL), sequence (Q8ILY1 entry or part of it): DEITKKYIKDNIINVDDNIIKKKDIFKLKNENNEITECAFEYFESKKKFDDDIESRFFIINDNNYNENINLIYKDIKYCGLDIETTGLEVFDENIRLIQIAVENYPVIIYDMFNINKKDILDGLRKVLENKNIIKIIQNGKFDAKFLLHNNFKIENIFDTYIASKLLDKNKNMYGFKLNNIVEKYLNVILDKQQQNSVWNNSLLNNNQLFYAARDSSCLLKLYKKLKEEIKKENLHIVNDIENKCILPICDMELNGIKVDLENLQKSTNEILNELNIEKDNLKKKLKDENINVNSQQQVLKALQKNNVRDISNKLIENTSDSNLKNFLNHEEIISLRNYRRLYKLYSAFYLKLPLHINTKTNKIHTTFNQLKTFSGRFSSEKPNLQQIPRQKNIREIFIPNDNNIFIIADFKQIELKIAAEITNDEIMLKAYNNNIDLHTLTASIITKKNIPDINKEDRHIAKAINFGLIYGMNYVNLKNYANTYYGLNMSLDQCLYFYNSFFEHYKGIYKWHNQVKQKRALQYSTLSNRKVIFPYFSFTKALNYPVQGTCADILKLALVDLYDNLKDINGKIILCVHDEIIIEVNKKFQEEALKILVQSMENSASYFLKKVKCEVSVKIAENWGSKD
smiles,measurement,setting,value
"COc1ccc(-c2c(C(F)(F)F)nn3c(=O)cc(-c4cccc([N+](=O)[O-])c4)[nH]c23)cc1 [Molecule 16, COc1ccc(cc1)c1c2[nH]c(cc(=O)n2nc1C(F)(F)F)c1cccc(c1)N(=O)=O]",DNA Pol,"'DNA Pol' of the 186 hits list (primary screen result), unit not given",98
same,% inhibition Apo pol 10',"DRC-1, concentration 2.5",21.756%
same,% inhibition Apo pol 10',"DRC-1, concentration 5",31.6281%
same,% inhibition Apo pol 10',"DRC-1, concentration 10",53.4209%
same,% inhibition Apo pol 10',"DRC-1, concentration 20",92.9592%
same,% inhibition Apo pol 10',"DRC-1, concentration 40",96.2671%
same,% inhibition Apo pol 10',"DRC-1, concentration 80",97.8824%
same,% inhibition Apol 90',"DRC-1, 90', concentration 2.5",17.6214%
same,% inhibition Apol 90',"DRC-1, 90', concentration 5",24.4098%
same,% inhibition Apol 90',"DRC-1, 90', concentration 10",48.4616%
same,% inhibition Apol 90',"DRC-1, 90', concentration 20",90.3483%
same,% inhibition Apol 90',"DRC-1, 90', concentration 40",97.371%
same,% inhibition Apol 90',"DRC-1, 90', concentration 80",97.5048%
same,% inhibition apPOL 180',"DRC-1, 180', concentration 2.5",12.6653%
same,% inhibition apPOL 180',"DRC-1, 180', concentration 5",14.5865%
same,% inhibition apPOL 180',"DRC-1, 180', concentration 10",38.3358%
same,% inhibition apPOL 180',"DRC-1, 180', concentration 20",87.8097%
same,% inhibition apPOL 180',"DRC-1, 180', concentration 40",96.7933%
same,% inhibition apPOL 180',"DRC-1, 180', concentration 80",96.9215%
same,% inhibition Apol 40',"DRC-2, 40', concentration 2.5 (unit not given)",13%
same,% inhibition Apol 40',"DRC-2, 40', concentration 40 (unit not given)",75%
same,% inhibition ApPOL 90',"DRC-2, 90', concentration 5 (unit not given)",14%
same,% inhibition apPOL 180',"DRC-2, 180', concentration 20 (unit not given)",65%
same,% inhibition apPOL 180',"DRC-2, 180', concentration 40 (unit not given)",75%
same,% inhibition Apo pol 5',"DRC-2, concentration 2.5",10%
same,% inhibition Apo pol 5',"DRC-2, concentration 5",14%
same,% inhibition Apo pol 5',"DRC-2, concentration 5 (unit not given)",14%
same,% inhibition Apo pol 5',"DRC-2, concentration 10",28%
same,% inhibition Apo pol 5',"DRC-2, concentration 20",58%
same,% inhibition Apo pol 5',"DRC-2, concentration 40",62%
same,% inhibition Apo pol 5',"DRC-2, concentration 80",65%
same,% inhibition Apo pol 5',"DRC-2, concentration 80 (unit not given)",65%
same,% inhibition Apol 40',"DRC-2, 40', concentration 2.5",13%
same,% inhibition Apol 40',"DRC-2, 40', concentration 5",16%
same,% inhibition Apol 40',"DRC-2, 40', concentration 10",33%
same,% inhibition Apol 40',"DRC-2, 40', concentration 20",68%
same,% inhibition Apol 40',"DRC-2, 40', concentration 40",75%
same,% inhibition Apol 40',"DRC-2, 40', concentration 80",79%
same,% inhibition ApPOL 90',"DRC-2, 90', concentration 2.5",13%
same,% inhibition ApPOL 90',"DRC-2, 90', concentration 2.5 (unit not given)",13%
same,% inhibition ApPOL 90',"DRC-2, 90', concentration 5",14%
same,% inhibition ApPOL 90',"DRC-2, 90', concentration 10",31%
same,% inhibition ApPOL 90',"DRC-2, 90', concentration 20",69%
same,% inhibition ApPOL 90',"DRC-2, 90', concentration 40",77%
same,% inhibition ApPOL 90',"DRC-2, 90', concentration 80",83%
same,% inhibition apPOL 180',"DRC-2, 180', concentration 2.5",9%
same,% inhibition apPOL 180',"DRC-2, 180', concentration 5",7.4%
same,% inhibition apPOL 180',"DRC-2, 180', concentration 10",23%
same,% inhibition apPOL 180',"DRC-2, 180', concentration 20",65%
same,% inhibition apPOL 180',"DRC-2, 180', concentration 40",75%
same,% inhibition apPOL 180',"DRC-2, 180', concentration 80",85%
same,DNA Pol,"primary screen value of the library well, unit not given",98
"COc1ccc(NC(=O)Cn2ccc3c(=O)[nH]ccc32)cc1Cl [Molecule 10, COc1ccc(cc1Cl)NC(=O)Cn1ccc2c1cc[nH]c2=O]",% inhibition Apo pol 10',"DRC-1, concentration 2.5",12.1098%
same,% inhibition Apo pol 10',"DRC-1, concentration 5",41.0198%
same,% inhibition Apo pol 10',"DRC-1, concentration 10",64.5653%
same,% inhibition Apo pol 10',"DRC-1, concentration 20",78.092%
same,% inhibition Apo pol 10',"DRC-1, concentration 40",83.862%
same,% inhibition Apo pol 10',"DRC-1, concentration 80",74.6013%
same,% inhibition Apol 90',"DRC-1, 90', concentration 2.5",1.658%
same,% inhibition Apol 90',"DRC-1, 90', concentration 5",26.4531%
same,% inhibition Apol 90',"DRC-1, 90', concentration 10",48.8726%
same,% inhibition Apol 90',"DRC-1, 90', concentration 20",69.5261%
same,% inhibition Apol 90',"DRC-1, 90', concentration 40",86.3942%
same,% inhibition Apol 90',"DRC-1, 90', concentration 80",83.0123%
same,% inhibition apPOL 180',"DRC-1, 180', concentration 2.5",-4.328%
same,% inhibition apPOL 180',"DRC-1, 180', concentration 5",12.6648%
same,% inhibition apPOL 180',"DRC-1, 180', concentration 10",30.7094%
same,% inhibition apPOL 180',"DRC-1, 180', concentration 20",56.2759%
same,% inhibition apPOL 180',"DRC-1, 180', concentration 40",85.5137%
same,% inhibition apPOL 180',"DRC-1, 180', concentration 80",84.9384%
same,% inhibition Apo pol 5',"DRC-2, concentration 2.5",22%
same,% inhibition Apo pol 5',"DRC-2, concentration 5",37%
same,% inhibition Apo pol 5',"DRC-2, concentration 10",48%
same,% inhibition Apo pol 5',"DRC-2, concentration 20",44%
same,% inhibition Apo pol 5',"DRC-2, concentration 40",37%
same,% inhibition Apo pol 5',"DRC-2, concentration 80",19%
same,% inhibition Apol 40',"DRC-2, 40', concentration 2.5",23%
same,% inhibition Apol 40',"DRC-2, 40', concentration 5",47%
same,% inhibition Apol 40',"DRC-2, 40', concentration 10",64%
same,% inhibition Apol 40',"DRC-2, 40', concentration 20",65%
same,% inhibition Apol 40',"DRC-2, 40', concentration 40",62%
same,% inhibition Apol 40',"DRC-2, 40', concentration 80",51%
same,% inhibition ApPOL 90',"DRC-2, 90', concentration 2.5",20%
same,% inhibition ApPOL 90',"DRC-2, 90', concentration 5",45%
same,% inhibition ApPOL 90',"DRC-2, 90', concentration 10",66%
same,% inhibition ApPOL 90',"DRC-2, 90', concentration 20",69%
same,% inhibition ApPOL 90',"DRC-2, 90', concentration 40",68%
same,% inhibition ApPOL 90',"DRC-2, 90', concentration 80",59%
same,% inhibition apPOL 180',"DRC-2, 180', concentration 2.5",8%
same,% inhibition apPOL 180',"DRC-2, 180', concentration 5",34%
same,% inhibition apPOL 180',"DRC-2, 180', concentration 10",62%
same,% inhibition apPOL 180',"DRC-2, 180', concentration 20",70%
same,% inhibition apPOL 180',"DRC-2, 180', concentration 40",73%
same,% inhibition apPOL 180',"DRC-2, 180', concentration 80",67%
same,% inhibition Apo pol 5',"conc. 5, DRC-2",37%
same,% inhibition apPOL 180',"conc. 10, 180', DRC-2",62%
same,% inhibition Apo pol 5',"conc. 40, DRC-2",37%
same,% inhibition Apol 40',"conc. 40, 40', DRC-2",62%
same,DNA Pol,primary screen value by plate and well,78
same,DNA Pol,"primary screen value of the 186 hits, unit not given",78
O=C(O)CC1SC(c2ccc3c(c2)OCO3)=NC1=O (stereo not drawn) [Molecule 69],IC50,,29.2 µM
Cn1nc(C(=O)N2CCc3c(nc4cc(-c5ccccc5)[nH]n4c3=O)C2)c2ccccc21 [Molecule 18],IC50,,6.38 µM
COc1ccc2c(c1)C(c1ccccc1OC)CC(=O)O2 (stereo not drawn) [Molecule 38],IC50,,11.2 µM
O=C1c2ccccc2C(=O)N1Oc1ccc([N+](=O)[O-])c([N+](=O)[O-])c1 [Molecule 66],IC50,,37 µM
Oc1ccc(N=Nc2ccccc2)c(O)c1 [Molecule 80],IC50,,37.5 µM
